Data published in PubChem BioAssay (NCI).
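Grown in 96-well plates, cells were treated for 48 hours with each compound at five concentrations. Insufficient inhibition: endpoint recorded as highest concentration tested. The concentration for full growth arrest is given as TGI.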

Assays:
Experiment in all cases: DTP human tumour cell line panel, 48 h
U251 CNS = tested on: U251 CNS
ACHN renal = tested on: ACHN renal
UO-31 renal = tested on: UO-31 renal
DU-145 prostate = tested on: DU-145 prostate
CAKI-1 renal = tested on: CAKI-1 renal
MDA-N = tested on: MDA-N
HL-60(TB) leukemia = tested on: HL-60(TB) leukemia
OVCAR-5 ovarian = tested on: OVCAR-5 ovarian
RPMI-8226 leukemia = tested on: RPMI-8226 leukemia
SNB-75 CNS = tested on: SNB-75 CNS

NS(=O)(=O)c1ccc(NC(=S)/N=C/C2=C(O)c3ccccc3C2=O)cc1
TGI (U251 CNS): > 100 µM
TGI (ACHN renal): > 100 µM
TGI (UO-31 renal): 85.6 µM
TGI (DU-145 prostate): > 100 µM
TGI (CAKI-1 renal): > 100 µM
TGI (MDA-N): > 100 µM
TGI (HL-60(TB) leukemia): > 100 µM
TGI (OVCAR-5 ovarian): > 100 µM
TGI (RPMI-8226 leukemia): > 100 µM
TGI (SNB-75 CNS): 76.4 µM

Cn1c(SCc2ccc(F)cc2)nnc1C12CC3CC(CC(C3)C1)C2
TGI (U251 CNS): > 100 µM
TGI (ACHN renal): > 100 µM
TGI (UO-31 renal): > 100 µM
TGI (DU-145 prostate): > 100 µM
TGI (CAKI-1 renal): > 100 µM
TGI (MDA-N): > 100 µM
TGI (HL-60(TB) leukemia): 28.6 µM
TGI (OVCAR-5 ovarian): > 100 µM
TGI (RPMI-8226 leukemia): 82.5 µM
TGI (SNB-75 CNS): > 100 µM
